According to ChEMBL document CHEMBL1201862, “PubChem BioAssay data set” (2004):
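Assay format: 96-well plates, 48-hour exposure. Abbreviation: GI50, concentration required for 50% inhibition of growth.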 Activity calls are given as the source filed them. Cut-off read from the data, not from the text of the source: active = GI50 up to about 1.1 µM and inactive = higher.

Columns and labels:
Assay in all cases: NCI-60 cell line screen, 48 h
A498 = test system: A498
A549 = test system: A549
CAKI-1 = test system: CAKI-1
COLO 205 = test system: COLO 205
HOP-62 = test system: HOP-62
KM12 = test system: KM12
LOX IMVI = test system: LOX IMVI
M14 = test system: M14
MDA-MB-435 = test system: MDA-MB-435
MDA-N = test system: MDA-N
NCI-H226 = test system: NCI-H226
NCI-H460 = test system: NCI-H460
NCI-H522 = test system: NCI-H522
SNB-19 = test system: SNB-19
SW-620 = test system: SW-620
TK-10 = test system: TK-10
UACC-62 = test system: UACC-62
UO-31 = test system: UO-31
SK-OV-3 = test system: SK-OV-3
CCRF-CEM = test system: CCRF-CEM

Compound | GI50 (A498) | GI50 (A549) | GI50 (CAKI-1) | GI50 (COLO 205) | GI50 (HOP-62) | GI50 (KM12) | GI50 (LOX IMVI) | GI50 (M14) | GI50 (MDA-MB-435) | GI50 (MDA-N) | GI50 (NCI-H226) | GI50 (NCI-H460) | GI50 (NCI-H522) | GI50 (SNB-19) | GI50 (SW-620) | GI50 (TK-10) | GI50 (UACC-62) | GI50 (UO-31) | GI50 (SK-OV-3) | GI50 (CCRF-CEM)
COC(=O)CCCC(=O)O | > 100 µM (inactive) | > 100 µM (inactive) | > 100 µM (inactive) | > 100 µM (inactive) | > 100 µM (inactive) | > 100 µM (inactive) | > 100 µM (inactive) | > 100 µM (inactive) | > 100 µM (inactive) | > 100 µM (inactive) | > 100 µM (inactive) | > 100 µM (inactive) | > 100 µM (inactive) | > 100 µM (inactive) | > 100 µM (inactive) | > 100 µM (inactive) | > 100 µM (inactive) | > 100 µM (inactive) | – | –
COc1cccc(N(CN2C(=O)CCC2C(=O)O)C(C)=O)c1 (centres undefined) | > 100 µM (inactive) | > 100 µM (inactive) | > 100 µM (inactive) | > 100 µM (inactive) | > 100 µM (inactive) | > 100 µM (inactive) | > 100 µM (inactive) | > 100 µM (inactive) | > 100 µM (inactive) | > 100 µM (inactive) | > 100 µM (inactive) | > 100 µM (inactive) | > 100 µM (inactive) | > 100 µM (inactive) | > 100 µM (inactive) | > 100 µM (inactive) | > 100 µM (inactive) | > 100 µM (inactive) | > 100 µM (inactive) | –
O=NN(CCCl)C(=O)NC1CCCCC1 [LOMUSTINE] | 74.3 µM (inactive) | 51.6 µM (inactive) | – | 41.2 µM (inactive) | 61.7 µM (inactive) | 71.4 µM (inactive) | 9.91 µM (inactive) | 41 µM (inactive) | 3.36 µM (inactive) | 18.7 µM (inactive) | 64.4 µM (inactive) | 36.1 µM (inactive) | 24.4 µM (inactive) | 52.5 µM (inactive) | 27.7 µM (inactive) | 73.1 µM (inactive) | 12.7 µM (inactive) | 84.1 µM (inactive) | 71.8 µM (inactive) | 13 µM (inactive)
COI1NC(=O)c2ccccc21 | > 100 µM (inactive) | > 100 µM (inactive) | – | > 100 µM (inactive) | > 100 µM (inactive) | > 100 µM (inactive) | > 100 µM (inactive) | > 100 µM (inactive) | > 100 µM (inactive) | > 100 µM (inactive) | > 100 µM (inactive) | – | 74 µM (inactive) | > 100 µM (inactive) | > 100 µM (inactive) | > 100 µM (inactive) | > 100 µM (inactive) | > 100 µM (inactive) | > 100 µM (inactive) | 60.4 µM (inactive)
COc1ccc2c(c1)CCc1c-2n(CCN2CCOCC2)c2ccc(OC)cc12 | > 100 µM (inactive) | 60.3 µM (inactive) | > 100 µM (inactive) | 32.8 µM (inactive) | > 100 µM (inactive) | 18.8 µM (inactive) | – | 28 µM (inactive) | > 100 µM (inactive) | 94.2 µM (inactive) | 25.5 µM (inactive) | 40.5 µM (inactive) | > 100 µM (inactive) | – | 48.8 µM (inactive) | > 100 µM (inactive) | > 100 µM (inactive) | > 100 µM (inactive) | > 100 µM (inactive) | 16.4 µM (inactive)
CC(C)c1c(P(=O)(c2ccccc2)c2ccccc2)n(C)c2ccccc12 | > 100 µM (inactive) | 51.6 µM (inactive) | – | 32.4 µM (inactive) | > 100 µM (inactive) | 51.8 µM (inactive) | > 100 µM (inactive) | 64.4 µM (inactive) | 45.5 µM (inactive) | 56.1 µM (inactive) | 52.8 µM (inactive) | 66.8 µM (inactive) | 23.4 µM (inactive) | 95.9 µM (inactive) | > 100 µM (inactive) | > 100 µM (inactive) | – | 31.8 µM (inactive) | – | 59 µM (inactive)
Cc1ccc(S(=O)(=O)N2CCNCCN(S(=O)(=O)c3ccc(C)cc3)CCNCC2)cc1 | 23.2 µM (inactive) | 34.2 µM (inactive) | 27.6 µM (inactive) | 16.4 µM (inactive) | 16.6 µM (inactive) | 20.8 µM (inactive) | 12.5 µM (inactive) | 18.1 µM (inactive) | 18.1 µM (inactive) | 20.2 µM (inactive) | 19.3 µM (inactive) | 14.7 µM (inactive) | 16.6 µM (inactive) | 31 µM (inactive) | 35.5 µM (inactive) | 18.3 µM (inactive) | 18.8 µM (inactive) | 19.8 µM (inactive) | 20.4 µM (inactive) | –
O=C(O)C(O)(c1ccc(-c2ccccc2)cc1)c1ccc(-c2ccccc2)cc1 | 23.3 µM (inactive) | 40.4 µM (inactive) | 28.8 µM (inactive) | – | 20.1 µM (inactive) | 19.9 µM (inactive) | 17.9 µM (inactive) | 35 µM (inactive) | 19.5 µM (inactive) | 17.1 µM (inactive) | 26.9 µM (inactive) | 20.4 µM (inactive) | 18.9 µM (inactive) | 49.4 µM (inactive) | 32.4 µM (inactive) | 37.6 µM (inactive) | 18.1 µM (inactive) | 42 µM (inactive) | – | –
O=c1[nH]nc(-c2ccccc2)c2[nH]c3c4ccccc4ccc3c12 | 1.51 µM (inactive) | 1.31 µM (inactive) | – | 0.74 µM (active) | 2.77 µM (inactive) | 0.692 µM (active) | – | 2.66 µM (inactive) | 0.193 µM (active) | 0.199 µM (active) | 4.14 µM (inactive) | 0.56 µM (active) | 0.753 µM (active) | 1.62 µM (inactive) | 0.656 µM (active) | 2.17 µM (inactive) | 1.2 µM (inactive) | – | 2.61 µM (inactive) | 1.56 µM (inactive)
COC(=O)C1(CCC(C)=O)CCCCCC1=O (centres undefined) | > 100 µM (inactive) | > 100 µM (inactive) | > 100 µM (inactive) | > 100 µM (inactive) | > 100 µM (inactive) | > 100 µM (inactive) | > 100 µM (inactive) | > 100 µM (inactive) | > 100 µM (inactive) | > 100 µM (inactive) | > 100 µM (inactive) | > 100 µM (inactive) | > 100 µM (inactive) | > 100 µM (inactive) | > 100 µM (inactive) | > 100 µM (inactive) | > 100 µM (inactive) | > 100 µM (inactive) | > 100 µM (inactive) | –
CC(C)[Si](OC1=C(C(=O)N(C)c2ccccc2Cl)CCCCC1)(C(C)C)C(C)C | > 100 µM (inactive) | > 100 µM (inactive) | > 100 µM (inactive) | > 100 µM (inactive) | > 100 µM (inactive) | > 100 µM (inactive) | > 100 µM (inactive) | > 100 µM (inactive) | > 100 µM (inactive) | > 100 µM (inactive) | > 100 µM (inactive) | > 100 µM (inactive) | 97.1 µM (inactive) | > 100 µM (inactive) | > 100 µM (inactive) | > 100 µM (inactive) | – | > 100 µM (inactive) | > 100 µM (inactive) | –
